# Several values for one entry are separate records, joined by “and”; a condition that tells them apart may be missing. Equal entries are not always repeated. Inconclusive results and toxic doses are left out.
# Tested on: P388 leukemia ip, CD2F1 mice, survival T/C
# Test: NCI In Vivo Anticancer Drug Screen. Data for tumor model P388 Leukemia (intraperitoneal) in CD2F1 (CDF1) mice
# Settings: endpoint: median survival time, higher = longer survival
# Procedure, shortened: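 Mice carrying the transplanted tumor received test compound or vehicle. Survival was recorded in each group, and the value is the treated-group measurement divided by that of the vehicle-treated control group.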
# [1] = dose: 100.0 mg/kg/injection, schedule: Q04DX003 (ip), vehicle: saline with Tween-80
# [2] = dose: 200.0 mg/kg/injection, schedule: Q04DX003 (ip), vehicle: saline with Tween-80
# [3] = dose: 400.0 mg/kg/injection, schedule: Q04DX003 (ip), vehicle: saline with Tween-80
# [4] = dose: 100.0 mg/kg/injection, schedule: Q01DX001 (ip), vehicle: saline with Tween-80
# [5] = dose: 200.0 mg/kg/injection, schedule: Q01DX001 (ip), vehicle: saline with Tween-80
# [6] = dose: 400.0 mg/kg/injection, schedule: Q01DX001 (ip), vehicle: saline with Tween-80
# [7] = dose: 50.0 mg/kg/injection, schedule: Q01DX009 (ip), vehicle: saline
# [8] = dose: 100.0 mg/kg/injection, schedule: Q01DX009 (ip), vehicle: saline
# [9] = dose: 200.0 mg/kg/injection, schedule: Q01DX009 (ip), vehicle: saline
# [10] = dose: 30.0 mg/kg/injection, schedule: Q01DX005 (ip), vehicle: saline
# [11] = dose: 60.0 mg/kg/injection, schedule: Q01DX005 (ip), vehicle: saline
# [12] = dose: 120.0 mg/kg/injection, schedule: Q01DX005 (ip), vehicle: saline
# [13] = dose: 240.0 mg/kg/injection, schedule: Q01DX005 (ip), vehicle: saline
# [14] = dose: 15.0 mg/kg/injection, schedule: Q01DX005 (ip), vehicle: saline with Tween-80
# [15] = dose: 30.0 mg/kg/injection, schedule: Q01DX005 (ip), vehicle: saline with Tween-80
# [16] = dose: 60.0 mg/kg/injection, schedule: Q01DX005 (ip), vehicle: saline with Tween-80
# [17] = dose: 50.0 mg/kg/injection, schedule: Q01DX009 (ip), vehicle: saline with Tween-80
# [18] = dose: 100.0 mg/kg/injection, schedule: Q01DX009 (ip), vehicle: saline with Tween-80
# [19] = dose: 200.0 mg/kg/injection, schedule: Q01DX009 (ip), vehicle: saline with Tween-80
# [20] = dose: 50.0 mg/kg/injection, schedule: Q01DX005 (ip), vehicle: saline with Tween-80
# [21] = dose: 100.0 mg/kg/injection, schedule: Q01DX005 (ip), vehicle: saline with Tween-80
# [22] = dose: 200.0 mg/kg/injection, schedule: Q01DX005 (ip), vehicle: saline with Tween-80
# [23] = dose: 120.0 mg/kg/injection, schedule: Q01DX005 (ip), vehicle: saline with Tween-80
# [24] = dose: 240.0 mg/kg/injection, schedule: Q01DX005 (ip), vehicle: saline with Tween-80
smiles,measurement,setting,value
COc1ccc(CSCc2c(CSCc3ccc(OC)c(OC)c3)c(CSCc3ccc(OC)c(OC)c3)c(CSCc3ccc(OC)c(OC)c3)c(CSCc3ccc(OC)c(OC)c3)c2CSCc2ccc(OC)c(OC)c2)cc1OC,T/C,[1],96 % of control
same,T/C,[2],90 % of control
same,T/C,[3],102 % of control
CC(C)P(C(C)C)C(C)C,T/C,[4],104 % of control
same,T/C,[5],104 % of control
same,T/C,[6],95 % of control
CSC(=S)N/N=C/c1nccc(-c2ccccc2)c1C,T/C,[7],97 % of control
same,T/C,[8],108 % of control
same,T/C,[9],96 % of control
O=S(=O)(O)c1ccc2c(-c3ccccc3)c3ccccc3c(-c3ccccc3)c2c1,T/C,"dose: 60.0 mg/kg/injection, schedule: Q01DX005 (ip), vehicle: Klucel (hydroxypropylcellulose) (HPC)",99 % of control
same,T/C,"dose: 120.0 mg/kg/injection, schedule: Q01DX005 (ip), vehicle: Klucel (hydroxypropylcellulose) (HPC)",100 % of control
same,T/C,"dose: 240.0 mg/kg/injection, schedule: Q01DX005 (ip), vehicle: Klucel (hydroxypropylcellulose) (HPC)",98 % of control
O=C(O)CC(SCP(=O)(O)O)C(=O)O (stereo not drawn),T/C,[10],98 % of control
same,T/C,[11],91 % of control
same,T/C,[12],89 % of control
same,T/C,[13],93 % of control and 97 % of control
Cc1[nH]ccc2c(C)c3nc4ccc(O)cc4c3cc12,T/C,"dose: 40.0 mg/kg/injection, schedule: Q04DX002 (ip), vehicle: water",157 % of control
CCC1OC(O)C=CC1=O (stereo not drawn),T/C,"dose: 1.5 mg/kg/injection, schedule: Q01DX005 (ip), vehicle: saline",99 % of control
same,T/C,"dose: 3.0 mg/kg/injection, schedule: Q01DX005 (ip), vehicle: saline",93 % of control
C[n+]1ccccc1-c1ccc[n+](CCC[n+]2cccc(-c3cccc[n+]3C)c2)c1,T/C,"dose: 100.0 mg/kg/injection, schedule: Q04DX002 (ip), vehicle: saline",105 % of control
same,T/C,"dose: 200.0 mg/kg/injection, schedule: Q04DX002 (ip), vehicle: saline",102 % of control
same,T/C,"dose: 400.0 mg/kg/injection, schedule: Q04DX002 (ip), vehicle: saline",108 % of control
CCSC(C(OC(C)=O)C(OC(C)=O)C(COC(C)=O)OC(C)=O)n1cc(F)c(=O)[nH]c1=O (stereo not drawn),T/C,"dose: 25.0 mg/kg/injection, schedule: Q01DX005 (ip), vehicle: other",97 % of control
same,T/C,"dose: 50.0 mg/kg/injection, schedule: Q01DX005 (ip), vehicle: other",110 % of control
same,T/C,"dose: 100.0 mg/kg/injection, schedule: Q01DX005 (ip), vehicle: other",105 % of control
same,T/C,"dose: 200.0 mg/kg/injection, schedule: Q01DX005 (ip), vehicle: other",107 % of control
same,T/C,"dose: 400.0 mg/kg/injection, schedule: Q01DX005 (ip), vehicle: other",100 % of control
same,T/C,"dose: 400.0 mg/kg/injection, schedule: Q01DX009 (ip), vehicle: other",92 % of control
C=CCC(CCCCCCCCCCCCC)C(=O)O (stereo not drawn),T/C,[4],104 % of control
same,T/C,[5],95 % of control
same,T/C,[6],91 % of control
[O-]/[N+](C1C(Cl)C2CC1C1C=CCC12)=[N+](\[O-])C1C(Cl)C2CC1C1C=CCC12 (stereo not drawn),T/C,[14],95 % of control
same,T/C,[15],92 % of control
same,T/C,[16],100 % of control and 86 % of control
CCCCC(=O)N1C(=O)/C(=C\N(C)C)c2cc(C=O)ccc21,T/C,[17],90 % of control
same,T/C,[18],90 % of control
same,T/C,[19],90 % of control
CCOc1cccc2c1C(=O)c1cccc(OCC)c1C2=O,T/C,[1],109 % of control
same,T/C,[2],104 % of control
same,T/C,[3],100 % of control
c1ccc(/C(=N\Nc2ccc3ccccc3n2)c2ccccn2)cc1,T/C,[20],110 % of control
same,T/C,[21],94 % of control
same,T/C,[22],100 % of control
COc1ccc(C(=O)/C=C/c2c[nH]c3ccccc23)c(O)c1,T/C,[14],96 % of control
same,T/C,[15],96 % of control
same,T/C,[16],96 % of control
same,T/C,[23],92 % of control
same,T/C,[24],96 % of control
O=c1c2[nH]c3ccccc3sc=2c(=O)n1-c1cccc(Cl)c1,T/C,[20],102 % of control
same,T/C,[21],102 % of control
same,T/C,[22],105 % of control
O=c1c2ccccc2[nH]c(=S)n1-c1cccc(C(F)(F)F)c1,T/C,[17],92 % of control
same,T/C,[18],94 % of control
same,T/C,[19],100 % of control
CC(=O)Nc1cc(NC(C)=O)c(N=O)c(NC(C)=O)n1,T/C,[7],100 % of control
same,T/C,[8],99 % of control
same,T/C,[9],91 % of control
CCN(CC)CCCNc1c(O)cc(C)c2sc3ccccc3c(=O)c12,T/C,[17],94 % of control
same,T/C,[18],94 % of control
same,T/C,[19],100 % of control
Cn1nc([N+](=O)[O-])nc1-c1ccccc1,T/C,[17],106 % of control
same,T/C,[18],98 % of control
same,T/C,[19],107 % of control
same,T/C,"dose: 400.0 mg/kg/injection, schedule: Q01DX009 (ip), vehicle: saline with Tween-80",107 % of control
COc1cc(NC(C)CCCNC(C)C)c2ncccc2c1 (stereo not drawn),T/C,"dose: 6.25 mg/kg/injection, schedule: Q01DX005 (ip), vehicle: saline with Tween-80",100 % of control
same,T/C,"dose: 12.5 mg/kg/injection, schedule: Q01DX005 (ip), vehicle: saline with Tween-80",100 % of control
CC(=O)Nc1cc2nc3ccc(C)cc3oc-2c(C)c1=O,T/C,"dose: 0.78 mg/kg/injection, schedule: Q01DX009 (ip), vehicle: other",113 % of control
same,T/C,"dose: 1.56 mg/kg/injection, schedule: Q01DX009 (ip), vehicle: other",98 % of control
same,T/C,"dose: 3.13 mg/kg/injection, schedule: Q01DX009 (ip), vehicle: other",98 % of control
same,T/C,"dose: 6.25 mg/kg/injection, schedule: Q01DX009 (ip), vehicle: other",103 % of control
CCCCCC(=O)C(C)(c1nc2n(c1O)/C(=N/C(=O)Nc1ccc(Cl)cc1)N=N2)c1nc2n(c1O)/C(=N/C(=O)Nc1ccc(Cl)cc1)N=N2,T/C,[16],89 % of control
same,T/C,[23],88 % of control
same,T/C,[24],86 % of control
COc1cc(C2SCC(=O)N2c2nnc(C)s2)cc(OC)c1OC (stereo not drawn),T/C,"dose: 50.0 mg/kg/injection, schedule: Q01DX005 (ip), vehicle: Klucel (hydroxypropylcellulose) (HPC)",97 % of control
same,T/C,"dose: 100.0 mg/kg/injection, schedule: Q01DX005 (ip), vehicle: Klucel (hydroxypropylcellulose) (HPC)",89 % of control
same,T/C,"dose: 200.0 mg/kg/injection, schedule: Q01DX005 (ip), vehicle: Klucel (hydroxypropylcellulose) (HPC)",89 % of control
COc1ccc(C[n+]2ccc3ccccc3c2)cc1,T/C,"dose: 15.0 mg/kg/injection, schedule: Q01DX005 (ip), vehicle: saline",95 % of control
same,T/C,[10],95 % of control
same,T/C,[11],106 % of control and 111 % of control
OCc1ccn2c1CCC2,T/C,"dose: 6.25 mg/kg/injection, schedule: Q01DX009 (ip), vehicle: water",107 % of control
same,T/C,"dose: 12.5 mg/kg/injection, schedule: Q01DX009 (ip), vehicle: water",109 % of control
same,T/C,"dose: 25.0 mg/kg/injection, schedule: Q01DX009 (ip), vehicle: water",110 % of control
same,T/C,"dose: 50.0 mg/kg/injection, schedule: Q01DX009 (ip), vehicle: water",115 % of control
same,T/C,"dose: 100.0 mg/kg/injection, schedule: Q01DX009 (ip), vehicle: water",109 % of control
COC(=O)C1=C(C)NC(c2ccc(OC)cc2OC)C(C(=O)OC)=C1C (stereo not drawn),T/C,[16],105 % of control
same,T/C,[23],102 % of control
same,T/C,[24],97 % of control
CN(C)CCO[Si](C)(C)C[Si](C)(C)OCCN(C)C,T/C,[11],107 % of control
same,T/C,[12],102 % of control
same,T/C,[13],108 % of control
O=C1NCC(=O)C(=O)N1,T/C,[7],100 % of control and 106 % of control
same,T/C,[8],101 % of control and 103 % of control
same,T/C,[9],100 % of control and 110 % of control
same,T/C,"dose: 400.0 mg/kg/injection, schedule: Q01DX009 (ip), vehicle: saline",103 % of control and 105 % of control
O=C(O)C(=O)O.[NH-]CC[NH-].[Pt+2],T/C,"dose: 3.12 mg/kg/injection, schedule: Q04DX002 (ip), vehicle: saline with Tween-80",117 % of control
COc1ccc(C2Cc3cc(OC)c(OC)cc3C(c3ccccc3)N2)cc1OC (stereo not drawn),T/C,[16],86 % of control
same,T/C,[23],88 % of control
same,T/C,[24],89 % of control

# — PubChem BioAssay AID330 (DTP/NCI, 2004)
